In this series the target is ATP-binding cassette sub-family C member 2 (Rattus norvegicus, UniProt Q63120). The experiment in a line: TP_TRANSPORTER: Branched DNA assay in vivo SD rat, kidney. The class given is functional, organism-based, Sprague-Dawley.

The structures appear in SMILES notation.

Chain of ATP-binding cassette sub-family C member 2 (Q63120 whole entry): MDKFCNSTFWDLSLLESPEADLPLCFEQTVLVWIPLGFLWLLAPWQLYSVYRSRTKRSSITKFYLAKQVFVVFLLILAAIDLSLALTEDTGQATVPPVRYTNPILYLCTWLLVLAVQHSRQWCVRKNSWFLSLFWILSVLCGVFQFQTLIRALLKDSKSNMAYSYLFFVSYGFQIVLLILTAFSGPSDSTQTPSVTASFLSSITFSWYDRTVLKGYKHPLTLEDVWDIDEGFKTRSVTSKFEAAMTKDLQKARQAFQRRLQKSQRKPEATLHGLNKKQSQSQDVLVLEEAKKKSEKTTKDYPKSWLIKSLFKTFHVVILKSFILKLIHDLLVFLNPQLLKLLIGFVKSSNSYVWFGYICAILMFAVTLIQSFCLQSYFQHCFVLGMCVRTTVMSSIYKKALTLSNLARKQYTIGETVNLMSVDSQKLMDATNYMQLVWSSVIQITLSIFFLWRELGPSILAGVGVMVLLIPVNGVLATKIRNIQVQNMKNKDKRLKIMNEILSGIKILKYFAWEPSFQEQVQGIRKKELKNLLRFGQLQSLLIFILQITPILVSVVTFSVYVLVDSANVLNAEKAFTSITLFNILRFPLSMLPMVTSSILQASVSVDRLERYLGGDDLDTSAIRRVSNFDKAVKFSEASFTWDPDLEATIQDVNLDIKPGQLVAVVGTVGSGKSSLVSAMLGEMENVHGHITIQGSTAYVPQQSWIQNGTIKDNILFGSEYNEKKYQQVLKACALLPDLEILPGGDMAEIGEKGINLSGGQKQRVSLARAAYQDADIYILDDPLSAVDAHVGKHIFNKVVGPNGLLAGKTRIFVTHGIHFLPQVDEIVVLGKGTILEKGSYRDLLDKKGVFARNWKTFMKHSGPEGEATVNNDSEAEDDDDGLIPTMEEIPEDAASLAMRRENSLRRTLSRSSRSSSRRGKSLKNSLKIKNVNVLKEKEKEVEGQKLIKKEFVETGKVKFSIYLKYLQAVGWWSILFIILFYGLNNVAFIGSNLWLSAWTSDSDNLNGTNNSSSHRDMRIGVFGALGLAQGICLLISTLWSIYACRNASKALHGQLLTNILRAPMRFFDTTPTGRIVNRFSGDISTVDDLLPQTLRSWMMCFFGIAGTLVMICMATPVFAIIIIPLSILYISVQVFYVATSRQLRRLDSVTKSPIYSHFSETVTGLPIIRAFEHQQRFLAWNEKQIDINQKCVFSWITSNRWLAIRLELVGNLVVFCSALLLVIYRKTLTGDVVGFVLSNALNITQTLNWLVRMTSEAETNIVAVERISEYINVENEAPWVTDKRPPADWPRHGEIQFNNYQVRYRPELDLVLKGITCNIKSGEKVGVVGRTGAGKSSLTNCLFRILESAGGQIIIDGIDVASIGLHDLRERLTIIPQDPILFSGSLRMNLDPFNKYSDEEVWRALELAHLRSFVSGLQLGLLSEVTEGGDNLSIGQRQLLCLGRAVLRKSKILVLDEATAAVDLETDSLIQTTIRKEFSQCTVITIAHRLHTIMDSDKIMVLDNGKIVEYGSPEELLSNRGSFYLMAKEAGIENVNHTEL

As for `O=c1cc(-c2ccccc2)oc2ccc3ccccc3c12` [BETA-NAPHTHOFLAVONE], the Activity result is “inducer [+]”.
Then `CCCC[C@@H](CC)COC(=O)c1ccccc1C(=O)OC[C@@H](CC)CCCC` [BIS(2-ETHYLHEXYL)PHTHALATE], with “inducer [+]”; and `OCc1c[nH]c2ccccc12` [INDOLE-3-CARBINOL], with “inducer [+]”; and `CN(N=O)C(=O)N[C@@H](C=O)[C@@H](O)[C@H](O)[C@H](O)CO` [STREPTOZOCIN], with “inducer [+]”.

The values are drawn from ChEMBL document CHEMBL2073781, “Organ distribution of multidrug resistance proteins 1, 2, and 3 (Mrp1, 2, and 3) mRNA and hepatic induction of Mrp3 by constitutive androstane receptor activators in rats” (J Pharmacol Exp Ther, 2002).
